Experimental data from US12139488B2, “Pyrido[3,2-d]pyrimidine compounds uses thereof for treating a proliferative disease” (Universite de Montreal, priority 2021, dated 2024).

Tests used:
Assay type in all cases: cell-based, human
A2058 cells (BRAF V600E) = assay: Proliferation inhibition (CellTiter-Glo), A2058; conditions: A2058, 3 days; read-out: A2058 Prolif. EC50
Description: (§1) All cancer cell lines (A375, A101D, A2058, RKO, HT29 SK-MEL 30, IPC298, HepG2, HCT-116, Lovo, SWV620, SW480, NCI-H358, NCI-H2122, Calu-6, NCIH2087, NCIH1755, NCIH1666 and Mewo) were obtained from ATCC and cultured in RPMI-1640 medium (Gibco) supplemented with 5% heat inactivated fetal bovine serum (FBS, Wisent) at 37° C. under 5% CO2. Cells were maintained in T175 flasks (Greiner). They were passaged by removing the culture medium, washing once in 10 mL of room temperature Phosphate Buffered Saline (PBS; Wisent) and incubating at 37° C. with 2 mL of 0.05% Trypsin (Thermo-Fisher). […]
(§2) After 3 days of incubation, the growth media were removed by aspiration and 60 μL of diluted CellTiter-Glo® reagent (10 μL CellTiter-Glo® reagent+50 μL of PBS) was added to each well. […] Luminescence signals were then acquired on a Synergy Neo2 plate reader (Biotek).
(§3) The effect of each compound dilution on the proliferation of cancer cell lines was expressed in % inhibition and calculated as follows. […]
(§4) The ability of each compound to inhibit proliferation was expressed as a EC50 value obtained by plotting the effect values for each data point of a dilution series and fitting the obtained curves using a log(agonist) versus response-variable slope (four parameters) function using GraphPadPrism (V7.0) or Dotmatics Screening Ultra platform.

A101D cells (BRAF V600E) = assay: Proliferation inhibition (CellTiter-Glo), A101D; conditions: 3 days, read-out: A101D Prolif. EC50
Description: as §1, §2, §3, §4

[1] = tested on: pERK and pMEK in RAS-mutant HCT-116 cells; assay: Immunoblot analysis of pERK and pMEK in HCT-116 cells; conditions: 1 h treatment, FIG. 2
Description: For immunoblotting analysis, 500,000 HCT-116 cells were plated in 1 mL of complete RPMI-1640 growth medium in 24-well flat-bottomed transparent dishes (Costar). Cells were maintained overnight at 37° C. under 5% CO2 before treatment with compounds' dilution series for one hour.
Cells were then washed once in PBS and lized in 250 μL of Igepal Lysis Buffer (50 mM Tris-HCl pH 7.5, 150 mM NaCl, 1% Igepal-CA630, 1 mM EDTA, 10% Glycerol) supplemented with Leupeptin, Aprotinin, PMSF, phosphatase inhibitor cocktail (Sigma) and Na3VO4 at 4° C. for 15 minutes with gentle rocking. Cell extracts were then cleared by centrifugation at 20,000 g at 4° C. for 10 minutes. Cleared lysates were then transferred on ice in fresh tubes and then boiled in sample loading buffer (100 mM Tris-HCl pH 6.8, 4% SDS, 0.2% bromophenol blue, 20% glycerol, 200 mM p-mercaptoethanol) for 5 minutes prior to fractionation by SDS-PAGE and transfer to nitrocellulose membranes (PALL). […]

| Compound | EC50 (A2058 cells (BRAF V600E)) | EC50 (A101D cells (BRAF V600E)) | paradoxical induction of pERK or pMEK signaling (immunoblot) [1] |
| --- | --- | --- | --- |
| Nc1cccc2c1ncn2-c1ccc2ncnc(Nc3c(F)ccc(NS(=O)(=O)c4cccc(Cl)c4Cl)c3F)c2n1 [Example 99] | < 30 nM | < 30 nM | does not induce paradoxical induction of pERK or pMEK signaling |
| CC1(O)CCN(c2cccc3c2ncn3-c2ccc3ncnc(Nc4c(F)ccc(NS(=O)(=O)c5cccc(Cl)c5Cl)c4F)c3n2)CC1 [Example 524] | < 30 nM | < 30 nM | – |
